Tests used:
[1] = target: T1, type 1 human 5α-reductase (HRED1) (Homo sapiens, UniProt P18405); test: Whole cell assay of 5α-reductase, type 1 isoenzyme; format: cell-based; set-up: expressed in transfected cells; host or cells: rat 1A cells infected with pMV7 retrovirus;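 note: intact rat 1A cells engineered to express the human type 1 5α-reductase isozyme serve as the enzyme source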
T1 sequence (P18405 1-259): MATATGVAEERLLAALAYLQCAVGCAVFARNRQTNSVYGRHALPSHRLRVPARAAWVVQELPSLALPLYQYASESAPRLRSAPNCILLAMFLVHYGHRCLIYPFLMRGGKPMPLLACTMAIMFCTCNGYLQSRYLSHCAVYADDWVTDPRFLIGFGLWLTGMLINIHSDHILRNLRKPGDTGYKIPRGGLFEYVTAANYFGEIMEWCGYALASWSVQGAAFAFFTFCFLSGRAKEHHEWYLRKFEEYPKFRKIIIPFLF

[2] = target: T1, type 1 human 5α-reductase (HRED1); test: Cell free assay of 5α-reductase, microsomes of rat 1A cells expressing type 1 isoenzyme (HRED1); format: biochemical; set-up: expressed in transfected cells; host or cells: rat 1A cells infected with pMV7 retrovirus; microsomes;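 note: microsomes from rat 1A cells expressing human type 1 5α-reductase, conversion of radiolabeled testosterone to dihydrotestosterone quantified by thin layer chromatography with radioanalytic scanning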
[3] = target: T2, type 2 human 5α-reductase (HRED2) (Homo sapiens, UniProt P31213); test: Cell free assay of 5α-reductase, microsomes of rat 1A cells expressing type 2 isoenzyme (HRED2); format: biochemical; set-up: expressed in transfected cells; host or cells: rat 1A cells infected with pMV7 retrovirus; microsomes;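 note: labeled testosterone and its product dihydrotestosterone measured in microsomal reaction extracts via thin layer chromatography plus radioanalytic scanning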
T2 sequence (P31213 1-254): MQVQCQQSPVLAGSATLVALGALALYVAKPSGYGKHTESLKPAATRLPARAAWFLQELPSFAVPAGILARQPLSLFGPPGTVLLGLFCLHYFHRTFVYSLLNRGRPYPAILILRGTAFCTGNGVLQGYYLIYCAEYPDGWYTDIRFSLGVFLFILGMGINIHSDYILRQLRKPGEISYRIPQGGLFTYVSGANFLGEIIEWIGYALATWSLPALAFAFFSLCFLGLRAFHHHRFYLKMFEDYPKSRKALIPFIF

[4] = target: T2, type 2 human 5α-reductase (HRED2); test: Whole cell assay of 5α-reductase, type 2 isoenzyme; format: cell-based; set-up: expressed in transfected cells; host or cells: rat 1A cells infected with pMV7 retrovirus; settings: for inhibition at 100 µM / HRED2 % Inhibition @ 100 μM: Table 7; for IC50: Table 7, read-out: HCRED2 IC50;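 for all read-outs here: intact rat 1A cells genetically modified to carry human type 2 5α-reductase served as the enzyme source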
[5] = whole cell assay, Table 7, read-out: HCRED1 IC50
[6] = cell-free assay, read-out: IC50, type 1 isoenzyme
[7] = cell-free assay, read-out: IC50, type 2 isoenzyme
[8] = cell free assay, Table 4 quinones, read-out: HRED2 IC50
[9] = cell free assay, Table 4 quinones, read-out: HRED1 IC50
[10] = read-out: HRED1 % Inhibition @ 100 μM
[11] = read-out: HRED2 % Inhibition @ 100 μM
[12] = read-out: HRED1 % Inhibition @ 100 uM
[13] = read-out: HRED2 % Inhibition @ 100 uM
[14] = 100 uM, cell free assay, Table 1
[15] = cell free assay, Table 1 flavanoids, read-out: HRED1 IC50
[16] = cell free assay, Table 1 flavanoids, read-out: HRED2 IC50
[17] = cell free assay, Table 2 catechols, read-out: HRED1 IC50
[18] = cell free assay, Table 2 catechols, read-out: HRED2 IC50
[19] = 100 μM, cell free assay, Table 4

## CCCCCC#CCC#CCC#CCC#CCCCC(=O)O [5,8,11,14-Eocpsatetraynoic Acid, 5,8,11,14-eicosatetraynoic acid]
[1]; whole cell assay, Table 7
  inhibition at 100 µM: 67%
[1]; [5]
  IC50: 22 µM
[2]; 100 μM, cell free assay, Table 6, read-out: HRED1 % Inhibition @ 100 μM
  inhibition at 100 µM: 97%
[2]; [6]
  IC50: 15 µM
[3]; 100 μM, cell free assay, Table 6, read-out: HRED2 % Inhibition @ 100 μM
  inhibition at 100 µM: 81%
[3]; [7]
  IC50: 3 µM
[4]
  inhibition at 100 µM: 86%
  IC50: 2 µM

## O=C1c2ccccc2C(=O)c2c1cc(S(=O)(=O)[O-])c(O)c2O.[Na+] [Alizarin Red 5, Alizarin Red S]
[1]; whole cell assay, Table 7
  HRED1 % Inhibition @ 100 μM: 28%
[3]; [8]
  IC50: > 100 µM
[4]
  IC50: > 100 µM

## O=C1c2ccccc2C(=O)c2c1ccc(O)c2O [Alizarin]
[1]; whole cell assay, Table 7
  inhibition at 100 µM: 75%
[1]; whole cell assay
  inhibitory activity in the whole cell assay, type 1 isoenzyme, in words: very effective inhibitor
[1]; [5]
  IC50: 6 µM
[2]; [9]
  IC50: 3 µM
[2]; cell-free assay
  inhibitory activity against type 1 isoenzyme, in words: very effective inhibitor
[2]; [10]
  inhibition at 100 µM: 95%
[3]; [11]
  inhibition at 100 µM: 54%
[4]
  inhibition at 100 µM: 27%
  IC50: > 100 µM

## CC/C=C\C/C=C\C/C=C\CCCCCCCC(=O)OC [Alpha-Linolenic Acid Me Ester]
[1]; whole cell assay, Table 7
  HRED1 % Inhibition @ 100 μM: 24%
[1]; [5]
  IC50: > 100 µM
[4]
  HRED2 % Inhibition @ 100 μM: 18%
  IC50: > 100 µM

## Oc1ccc2c(O)c3ccccc3cc2c1O [Anthrarobin]
[1]
  IC50: 6 µM
[1]; whole cell assay, Table 7
  inhibition at 100 µM: 91%
[1]; whole cell assay
  inhibitory activity in the whole cell assay, type 1 isoenzyme, in words: active
[2]
  IC50: 4 µM
[2]; [12]
  inhibition at 100 µM: 99%
[2]; [10]
  inhibition at 100 µM: 99%
[2]; read-out: HRED1 IC50, cell free assay, Table 4 quinones
  IC50: 4 µM
[3]
  IC50: 50 µM
[3]; [13]
  inhibition at 100 µM: 97%
[3]; [11]
  inhibition at 100 µM: 97%
[3]; read-out: HRED2 IC50, cell free assay, Table 4 quinones
  IC50: 50 µM
[4]
  inhibition at 100 µM: 31%
  IC50: > 100 µM

## COc1ccc(-c2coc3cc(O)cc(O)c3c2=O)cc1 [Biochanin a]
[1]; whole cell assay, Table 7
  HRED1 % Inhibition @ 100 μM: 64%
[1]; [5]
  IC50: 64 µM
[2]; [14]
  HRED1 % Inhibition @ 100 uM: 50%
[2]; [15]
  IC50: > 100 µM
[3]; [14]
  HRED2 % Inhibition @ 100 uM: 74%
[3]; [16]
  IC50: 17 µM
[3]; cell-free assay
  inhibitory activity against type 2 isoenzyme, in words: effective inhibitors
[4]
  inhibitory activity in the whole cell assay, type 2 isoenzyme, in words: significant inhibitory activity
  HRED2 % Inhibition @ 100 μM: 93%
  IC50: 5 µM

## O=C(/C=C/c1ccc(O)c(O)c1)OCCc1ccccc1 [Caffeic Acid Phenethyl Ester]
[1]; whole cell assay
  inhibitory activity in the whole cell assay, type 1 isoenzyme, in words: active
[1]; [5]
  IC50: 8 µM
[2]; [17]
  IC50: 26 µM
[3]; [18]
  IC50: > 100 µM
[4]
  IC50: 7 µM

## Oc1ccccc1O [Catechol]
[1]; whole cell assay, Table 7
  inhibition at 100 µM: 9%
[1]; [5]
  IC50: > 100 µM
[2]; [17]
  IC50: > 100 µM
[2]; [12]
  inhibition at 100 µM: 5%
[3]; [18]
  IC50: > 100 µM
[3]; [13]
  inhibition at 100 µM: 0%
[4]
  inhibition at 100 µM: 3%
  IC50: > 100 µM

## COc1cc(/C=C/C(=O)CC(=O)/C=C/c2ccc(O)c(OC)c2)ccc1O [Curcumin]
[1]; whole cell assay, Table 7
  inhibition at 100 µM: 99%
[2]; 100 uM, cell free assay, Table 3, read-out: HRED1 % Inhibition @ 100 uM
  inhibition at 100 µM: 95%
[2]; cell-free assay
  inhibitory activity against type 1 isoenzyme, in words: very effective inhibitor
[3]; cell-free assay
  inhibitory activity against type 2 isoenzyme, in words: very effective inhibitor
[3]; [13]
  inhibition at 100 µM: 87%

## O=c1c(-c2ccc(O)cc2)coc2cc(O)ccc12 [Daidzein]
[1]; whole cell assay, Table 7
  HRED1 % Inhibition @ 100 μM: 9%
[3]; cell-free assay
  inhibitory activity against type 2 isoenzyme, in words: effective inhibitors
[4]
  inhibitory activity in the whole cell assay, type 2 isoenzyme, in words: significant inhibitory activity

## O=C(O)c1cc(O)c(O)c(O)c1 [Gallic Acid]
[1]
  IC50: > 100 µM
[1]; whole cell assay, Table 7
  inhibition at 100 µM: 13%
[4]
  inhibition at 100 µM: 0%
  IC50: > 100 µM

## CCCCC/C=C\C/C=C\C/C=C\CCCCC(=O)O[C@H]1CC[C@@]2(C)C(=CC[C@H]3[C@@H]4CC[C@H]([C@H](C)CCCC(C)C)[C@@]4(C)CC[C@@H]32)C1 [Gamma-Linolenic Acid Chol Ester]
[1]; whole cell assay, Table 7
  HRED1 % Inhibition @ 100 μM: 12%
[1]; [5]
  IC50: > 100 µM
[4]
  HRED2 % Inhibition @ 100 μM: 11%
  IC50: > 100 µM

## CCCCC/C=C\C/C=C\C/C=C\CCCCC(=O)OC [Gamma-Linolenic Acid Me Ester]
[1]; whole cell assay, Table 7
  HRED1 % Inhibition @ 100 μM: 49%
[1]; [5]
  IC50: > 100 µM
[4]
  HRED2 % Inhibition @ 100 μM: 26%
  IC50: > 100 µM

## O=c1c(-c2ccc(O)cc2)coc2cc(O)cc(O)c12 [Genistein]
[3]; cell-free assay
  inhibitory activity against type 2 isoenzyme, in words: effective inhibitors
[4]
  inhibitory activity in the whole cell assay, type 2 isoenzyme, in words: significant inhibitory activity

## CCCCCCCCCCCCCC(=O)OC1Cc2c(O)cc(O)cc2OC1c1cc(O)c(O)c(O)c1 (stereo not drawn) [HZIV 165]
[1]; whole cell assay, Table 7
  HRED1 % Inhibition @ 100 μM: 97%
[1]; [5]
  IC50: 28 µM
[4]
  HRED2 % Inhibition @ 100 μM: 98%
  IC50: 32 µM

## CCCCCCCC(=O)OC1Cc2c(O)cc(O)cc2OC1c1cc(O)c(O)c(O)c1 (stereo not drawn) [HZIV 166]
[1]; whole cell assay, Table 7
  HRED1 % Inhibition @ 100 μM: 89%
[1]; [5]
  IC50: 58 µM
[4]
  HRED2 % Inhibition @ 100 μM: 83%
  IC50: 72 µM

## CC(C)OC(=O)c1cc(O)c(O)c(O)c1 [Isopropyl Gallate]
[1]; whole cell assay, Table 7
  inhibition at 100 µM: 0%
[1]; [5]
  IC50: > 100 µM
[4]
  inhibition at 100 µM: 0%
  IC50: > 100 µM

## CC(Cc1ccc(O)c(O)c1)C(C)Cc1ccc(O)c(O)c1 (stereo not drawn) [Nordihydrogaiaretic Acid, Nordihydroguaiaretic acid]
[1]; whole cell assay
  inhibitory activity in the whole cell assay, type 1 isoenzyme, in words: active
[3]; 100 uM, cell free assay, Table 2
  HRED2 % Inhibition @ 100 uM: 80%

## O=C1c2ccccc2C(=O)c2c(O)ccc(O)c21 [Quinizarin]
[2]; 100 μM, cell free assay, Table 4, read-out: HRED1 % Inhibition @ 100 μM
  inhibition at 100 µM: 26%
[2]; [9]
  IC50: > 100 µM
[3]; 100 μM, cell free assay, Table 4, read-out: HRED2 % Inhibition @ 100 μM
  inhibition at 100 µM: 7%
[3]; [8]
  IC50: > 100 µM

## C[C@@H]1O[C@@H](OC[C@H]2O[C@@H](Oc3c(-c4ccc(O)c(O)c4)oc4cc(O)cc(O)c4c3=O)[C@H](O)[C@@H](O)[C@@H]2O)[C@H](O)[C@H](O)[C@H]1O [Rutin]
[2]; [15]
  IC50: > 100 µM
[2]; [6]
  IC50: > 100 µM
[3]; [16]
  IC50: > 100 µM
[3]; read-out: IC50, type 2 isoenzyme
  IC50: > 100 µM

## CC(C)(C)c1cc(O)ccc1O [T-butylhydroxyquinone]
[2]; [19]
  HRED1 % Inhibition @ 100 μM: 19%
[2]; [9]
  IC50: > 100 µM
[3]; [19]
  HRED2 % Inhibition @ 100 μM: 4%
[3]; [8]
  IC50: > 100 µM

## O=C1c2c(O)cc(O)cc2O[C@H](c2ccc(O)c(O)c2)[C@H]1O [Taxifolin]
[2]; 100 uM, cell free assay, Table 1, read-out: HRED1 % Inhibition @ 100 uM
  inhibition at 100 µM: 5%
[2]; [15]
  IC50: > 100 µM
[2]; [6]
  IC50: > 100 µM
[3]; 100 uM, cell free assay, Table 1, read-out: HRED2 % Inhibition @ 100 uM
  inhibition at 100 µM: 5%
[3]; [16]
  IC50: > 100 µM
[3]; [7]
  IC50: > 100 µM

Reference: US20030144346A1, “Methods and compositions for regulation of 5-alpha reductase activity” (priority 1997, published 2003)
